# Data published in article PMC8434109, “Synthesis and Biological Activity of a Cytostatic Inhibitor of MLLr Leukemia Targeting the DOT1L Protein” (Molecules, 2021).
# Experiments:
# MV4-11 cells = test: Flow cytometry apoptosis analysis (Annexin V-APC/7-AAD); format: cell-based, human
# Experimental: A decrease in the S phase of the cell cycle was also observed from 24% (day 8) to 20% (day 10), 13% (day 12).
# In a 12-well plate, 2 mL exponentially growing MV4-11 cells were plated with a density of 2 × 10^5 cells/mL. […] Culture media and drugs were replaced every 2–3 days and cells were split back to a density of 2 × 10^5 cells/mL at the same time. Cells were harvested on days 8, 10, 12 and split to allow the analysis of cell cycle and Annexin V staining simultaneously. The apoptosis ratio was detected by an Annexin V-APC/7-AAD double staining assay (SONY 3804610) and cells were prepared according to the manufacturer’s recommendations. Cells for the cell cycle analysis were collected by centrifugation at 500× g for 5 min at 4 °C. The pellets were washed once with cold PBS and then fixed with 70% ethanol on ice for 30 min. Afterwards, the cells were washed once with cold PBS and stained with propidium iodide (Invitrogen P3566) for 30 min at 37 °C. Samples were measured using an Attune NxT acoustic focusing cytometer (Life Technologies), data were analyzed by FlowJo.
# DNMT3A = DNMT3A (Homo sapiens, UniProt Q9Y6K1); test: hDNMT3Acat activity assay; format: biochemical; conditions: substrate DNA, read-out: Enzyme % Activity (relative to DMSO controls)
# Experimental: Table S1: Selectivity of the compound on a HMT panel (by Reaction Biology, USA) and on hDNMT3Acat (as described in Ceccaldi
# Enzyme % Activity (relative to DMSO
# Testing Concentration 10µM
# Methyltransferase: Substrate: Activity enzyme in %
# [1] = tested on: HOXA9 and MEIS1 expression in MV4-11, MOLM13 and KOPN8 cells; test: Quantitative real-time PCR of MLL target genes; format: cell-based, human; conditions: 0.1, 0.32, 1 and 3.2 µM; 6 days MV4-11 and MOLM13, 10 days KOPN8
# Experimental: We then investigated the impact of the inhibition of H3K79me2 in MLLr cells on the expression of the pro-leukemic genes, HOXA9 and MEIS1. These are MLL target genes and have been characterized for being activated by the aberrant H3K79 methylation by DOT1L recruited at these genes by the MLL-fusion proteins and inhibited by DOTL1 inhibitors. […] The difference in kinetics is related to the doubling time of the cells (Table 1), indeed, we measured that the doubling time of MV4-11 is 12 h while the doubling time for MOLM-13 is 22 h.
# The non-adherent cell lines MV4-11, MOLM-13, and KOPN8 exponentially growing cells were plated in 12-well plates (1 plate for each experiment) at a rate of 500,000 cells per well at a final volume of 2 mL. The cells were incubated in the presence of increasing inhibitor concentrations (0.1, 0.32, 1, 3.2, 10 µM). […]
# Total RNA was isolated from the cell pellet of at least 1 × 10^6 cells using the RNAeasy mini kit (Cat No.: 74106, Qiagen) according to the manufacturer’s instructions. […] Complementary DNA (cDNA) was diluted at 1:10 and used as a template in quantitative real-time PCR (RT-qPCR) using the SYBR Green Master Kit (ref. 047516001, Roche, Boulogne-Billancourt, France) and LightCycler®480 (Roche, Boulogne-Billancourt, France) System according to the manufacturer’s instructions. […]
# MOLM-13 cells (MLL-AF9) = test: Cell proliferation, trypan blue counting; format: cell-based; conditions: Homo sapiens, 360 h; MOLM-13 (AF9), 15-day treatment; read-out: EC50 of the proliferation inhibition
# H3K79me2 in MV4-11 cells = test: Western blot of H3K79me2 normalized to total H3; format: cell-based, human; conditions: MV4-11, 4 days, increasing concentrations
# Experimental: (§1) Next, we evaluated the effect on the demethylation of H3K79 in MLL-AF9 MOLM13 cells (Figure 7B).
# (§2) The non-adherent cell lines MV4-11, MOLM-13, and KOPN8 exponentially growing cells were plated in 12-well plates (1 plate for each experiment) at a rate of 500,000 cells per well at a final volume of 2 mL. The cells were incubated in the presence of increasing inhibitor concentrations (0.1, 0.32, 1, 3.2, 10 µM). The cells (1 to 2 million) were harvested at the time chosen according to the line in order to extract the histones and the RNAs.
# (§3) For the isolation of histones from cells, 1 to 2 million cells were collected, after exposure to the chosen treatment, by centrifugation at 200× g and lysed by 5 min of incubation on ice in 250 μL of the nuclear extraction buffer (10 mM Tris-HCl, 10 mM MgCl2, 25 mM KCl, 1% Triton X-100, 8.6% sucrose, Roche Protease inhibitor tablet 1836145). The nuclei were collected by centrifugation at 600× g for 5 min at 4 °C. The supernatant was removed and the histones were extracted for 1 h with 0.4 N cold sulfuric acid. The extracts were clarified by centrifugation at 10,000× g for 10 min at 4 °C and transferred to a microcentrifuge tube containing a 10× volume of ice-cold acetone. The histones were precipitated at ‒20 °C overnight and recovered by centrifugation at 1500× g for 10 min in the form of a pellet and then resuspended in 80 μL of water. Histones were quantified by absorbance measured by a nanodrop at 276 nm.
# (§4) After extraction, the histones (500ng) were separated on 4–20% Tris-Glycine gels (Invitrogen) and transferred onto a nitrocellulose membrane ([…]) using the iBlot® Gel Transfer Stacks Nitrocellulose kit Mini (Invitrogen). After blocking nonspecific sites for 1 h at room temperature in a solution of 1X TBS at 5% milk, the membrane was incubated with rabbit anti-H3K79me2 (ab3594, 1/1000) or anti-H3 (ab1791)1/1000) overnight at 4 °C or 1 h at RT. The membrane was then washed three times for 5 min in a 1X TBS solution containing 0.05% Tween20 and was then incubated with an HRP anti-rabbit secondary antibody (NA934V, 1/10,000) for 1 h at RT. […]
# H3K79me2 in MOLM13 cells = test: Western blot of H3K79me2 normalized to total H3; format: cell-based, human; conditions: MOLM13, 6 days
# Experimental: as §1, §2, §3, §4
# Chain of DNMT3A (Q9Y6K1 634-912 limits assumed): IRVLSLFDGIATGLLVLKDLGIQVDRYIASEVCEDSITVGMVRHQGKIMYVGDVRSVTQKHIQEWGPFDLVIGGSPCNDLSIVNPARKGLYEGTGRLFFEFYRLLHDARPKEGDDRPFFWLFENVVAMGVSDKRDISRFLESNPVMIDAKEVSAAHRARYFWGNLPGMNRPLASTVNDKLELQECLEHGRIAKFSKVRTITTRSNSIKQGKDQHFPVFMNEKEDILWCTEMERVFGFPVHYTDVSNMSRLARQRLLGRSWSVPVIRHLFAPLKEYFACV
compound,measurement,setting,value
"CC(C)[C@H](CCCNC(=O)Nc1ccc(C(C)(C)C)cc1)N[C@H]1C[C@@H](n2cnc3c(N)ncnc32)[C@H](O)[C@@H]1O [Dia2, 1-((S)-4-(((1S,2R,3S,4R)-4-(6-amino-9H-purin-9-yl)-2,3-dihydroxycyclopentyl)amino)-5-methylhexyl)-3-(4-(tert-butyl)phenyl)urea]",effect on apoptosis,MV4-11 cells; MV4-11,very little apoptosis
same,apoptotic (Annexin V positive) cells,"MV4-11 cells; MV4-11, 1 µM, day 8",23%
same,apoptotic (Annexin V positive) cells,"MV4-11 cells; MV4-11, 1 µM, day 10",20%
same,apoptotic (Annexin V positive) cells,"MV4-11 cells; MV4-11, 3.2 µM, day 8",35%
same,apoptotic (Annexin V positive) cells,"MV4-11 cells; MV4-11, 3.2 µM, day 10",38%
same,remaining activity at 10 µM,DNMT3A,96 ± 2%
same,MEIS1 and HOXA9 expression,[1],decrease in a dose-dependent manner
same,EC50,MOLM-13 cells (MLL-AF9),120 ± 10 nM
same,H3K79me2 methylation compared to DMSO treated cells,H3K79me2 in MV4-11 cells,efficient decrease in methylation
same,inhibition of the H3K79me2 mark,H3K79me2 in MOLM13 cells,as efficient as EPZ-5676
